The test system of data set [1] is Botrytis cinerea. The experiment in a line: Botrytis cinerea in vitro cell test. The settings on record: 144 h, 20 ppm of active ingredient, 6 days incubation, liquid culture, spectrometric measurement of mycelium growth, read-out: efficacy (inhibition of fungal growth). It is filed as cell-based. How it is done:
(§1) • Solvent: DMSO • Culture medium: 1 g KH2PO4 (VWR), 1 g K2HPO4 (VWR), 0.5 g Urea (VWR), 3 g KNO3 (Prolabo), 10 g saccharose (VWR), 0.5 g MgSO4, 7H2O (Sigma), 0.07 g CaCl2, 2H2O (Prolabo), 0.2 mg MnSO4, H2O (Sigma), 0.6 mg CuSO4, 5H2O (Sigma), 7.9 mg ZnSO4, 7H2O (Sigma), 0.1 mg H3BO3 (Merck), 0.14 mg NaMoO4, 2H2O (Sigma), 2 mg thiamine (Sigma), 0.1 mg biotine (VWR), 4 mg FeSO4, 7H2O (Sigma), QSP 1 liter • Inoculum: spore suspension Fungicides were solubilized in DMSO and the solution used to prepare the required range of concentrations. […] A spore suspension of B. cinerea was prepared and diluted to the desired spore density. Fungicides were evaluated for their ability to inhibit spore germination and mycelium growth in liquid culture assay. The compounds were added in the desired concentration to the culture medium with spores. After 6 days incubation, fungi-toxicity of compounds was determined by spectrometric measurement of mycelium growth. Inhibition of fungal growth was determined by comparing the absorbance values in wells containing the fungicides with the absorbance in control wells without fungicides.

In another data set the test system is Alternaria brassicae. The experiment in a line: In vivo preventive test on Alternaria brassicae (leaf spot on radish or cabbage). The settings on record: 144 h, 500 ppm of active ingredient, preventive spray on young radish or cabbage plants, evaluated 6 days after inoculation, read-out: efficacy. As for the experimental part: The active ingredients were made soluble and homogenized in a mixture of Dimethyl sulfoxide/Acetone//Tween®80 and then diluted in water to the desired concentration. The young plants of radish or cabbage were treated by spraying the active ingredient prepared as described above. Control plants were treated only with an aqueous solution of Acetone/Dimethyl sulfoxide/Tween® 80. After 24 hours, the plants were contaminated by spraying the leaves with an aqueous suspension of Alternaria brassicae spores.

A further data set relates to Pyrenophora teres. The experiment in a line: Pyrenophora teres in vitro cell test. It is filed as cell-based. The following applies: 144 h, 20 ppm of active ingredient, 6 days incubation, liquid culture, spectrometric measurement of mycelium growth, read-out: efficacy (inhibition of fungal growth). As for the experimental part: (§2) • Solvent: DMSO • Culture medium: 14.6 g anhydrous D-glucose (VWR), 7.1 g Mycological Peptone (Oxoid), 1.4 g granulated Yeast Extract (Merck), QSP 1 liter • Inoculum: spore suspension Fungicides were solubilized in DMSO and the solution used to prepare the required range of concentrations. […] A spore suspension of P. teres was prepared and diluted to the desired spore density. Fungicides were evaluated for their ability to inhibit spore germination and mycelium growth in liquid culture assay. The compounds were added in the desired concentration to the culture medium with spores. After 6 days incubation, fungi-toxicity of compounds was determined by spectrometric measurement of mycelium growth. Inhibition of fungal growth was determined by comparing the absorbance values in wells containing the fungicides with the absorbance in control wells without fungicides.

Data set [2] has as its system Colletotrichum lindemuthianum. The data set is described as follows: Colletotrichum lindemuthianum in vitro cell test. The format is cell-based. The settings on record: 144 h, 20 ppm of active ingredient, 6 days incubation, liquid culture, spectrometric measurement of mycelium growth, read-out: efficacy (inhibition of fungal growth). How it is done:
as §2, with “of C. lindemuthianum” for “of P. teres”, “inhibit spores” for “inhibit spore”

The test system of another data set is Sphaerotheca fuliginea. The data set is described as follows: In vivo preventive test on Sphaerotheca fuliginea (powdery mildew on cucurbits). The following applies: Podosphaera fuliginea, 192 h; 500 ppm of active ingredient; preventive spray on young gherkin plants; evaluated 8 days after inoculation; read-out: efficacy. How it is done:
The active ingredients were made soluble and homogenized in a mixture of Dimethyl sulfoxide/Acetone//Tween®80 and then diluted in water to the desired concentration. The young plants of gherkin were treated by spraying the active ingredient prepared as described above. Control plants were treated only with an aqueous solution of Acetone/Dimethyl sulfoxide/Tween® 80. After 24 hours, the plants were contaminated by spraying the leaves with an aqueous suspension of Sphaerotheca fuliginea spores.

The nature of data set [3]: Measurement of Log P values by HPLC on reversed phase columns (EEC directive 79/831 Annex V.A8). It is filed as physicochemical. The settings on record: LogP. As for the experimental part: Measurement of Log P values as provided herein was performed according to EEC directive 79/831 Annex V.A8 by HPLC (High Performance Liquid Chromatography) on reversed phase columns with the following methods: • ^[a] Log P value is determined by measurement of LC-UV, in an acidic range, with 0.1% formic acid in water and acetonitrile as eluent (linear gradient from 10% acetonitrile to 95% acetonitrile). • ^[b] Log P value is determined by measurement of LC-UV, in a neutral range, with 0.001 molar ammonium acetate solution in water and acetonitrile as eluent (linear gradient from 10% acetonitrile to 95% acetonitrile). • ^[c] Log P value is determined by measurement of LC-UV, in an acidic range, with 0.1% phosphoric acid and acetonitrile as eluent (linear gradient from 10% acetonitrile to 95% acetonitrile).
If more than one Log P value is available within the same method, all the values are given and separated by “+”.
Calibration was done with straight-chain alkan2-ones (with 3 to 16 carbon atoms) with known Log P values (measurement of Log P values using retention times with linear interpolation between successive alkanones). Lambda-max-values were determined using UV-spectra from 200 nm to 400 nm and the peak values of the chromatographic signals

A further data set concerns Septoria tritici. The data set is described as follows: Septoria tritici in vitro cell test. It is filed as cell-based. The following applies: Zymoseptoria tritici, 168 h; 20 ppm of active ingredient; 7 days incubation; liquid culture, spectrometric measurement of mycelium growth; read-out: efficacy (inhibition of fungal growth). As for the experimental part:
as §1, with “S. tritici” for “B. cinerea”, “After 6 days incubation, fungi-toxicity of compounds was determined by spectrometric measurement of mycelium growth.” left out

The test system of data set [4] is Botrytis cinerea. The experiment in a line: In vivo preventive test on Botrytis cinerea (grey mould). The following applies: 500 ppm of active ingredient, preventive spray on young gherkin or cabbage plants, evaluated 4 to 5 days after inoculation, read-out: efficacy. How it is done:
The active ingredients were made soluble and homogenized in a mixture of Dimethyl sulfoxide/Acetone//Tween®80 and then diluted in water to the desired concentration. The young plants of gherkin or cabbage were treated by spraying the active ingredient prepared as described above. Control plants were treated only with an aqueous solution of Acetone/Dimethyl sulfoxide/Tween® 80. After 24 hours, the plants were contaminated by spraying the leaves with an aqueous suspension of Botrytis cinerea spores.

A further data set concerns Alternaria alternata. The experiment in a line: Alternaria alternata in vitro cell test. It is filed as cell-based. The settings on record: 120 h, 20 ppm of active ingredient, 5 days incubation, liquid culture, spectrometric measurement of mycelium growth, read-out: efficacy (inhibition of fungal growth). As for the experimental part:
as §2, with “of A. alternata” for “of P. teres”, “After 5” for “After 6”

Data set [5] deals with Colletotrichum lindemuthianum. The experiment in a line: In vivo preventive test on Colletotrichum lindemuthianum (leaf spot on bean). The following applies: 168 h, 500 ppm of active ingredient, preventive spray on young bean plants, evaluated 7 days after inoculation, read-out: efficacy. How it is done: The active ingredients were made soluble and homogenized in a mixture of Dimethyl sulfoxide/Acetone//Tween®80 and then diluted in water to the desired concentration. The young plants of bean were treated by spraying the active ingredient prepared as described above. Control plants were treated only with an aqueous solution of Acetone/Dimethyl sulfoxide/Tween® 80. After 24 hours, the plants were contaminated by spraying the leaves with an aqueous suspension of Colletotrichum lindemuthianum spores.

The test system of a further data set is Pyricularia oryzae. The experiment in a line: microbe, parasite or virus in culture. The following applies: 120 h, read-out: efficacy (inhibition of fungal growth). The format is cell-based.

The values below come from patent publication US12565489B2, “Heterocyclyl pyrimidines and triazines as novel fungicides” (Bayer Aktiengesellschaft, priority 2020, dated 2026).

As for `CSc1ncc(Oc2cccc(C(F)(F)F)c2)c(C2=NOC[C@@H](Cc3ccc(C)cc3Cl)N2)n1` (racemic) [Compound I-020], the inhibition at 20 ppm with Botrytis cinerea [1] is 90 to 100%; with Pyrenophora teres, 90 to 100%; in [2] it was 90 to 100%; with Septoria tritici, 70 to 79%. The pest or weed control at 500 ppm with Alternaria brassicae, in the data set on Sphaerotheca fuliginea and in the data set on Botrytis cinerea [4] was 90 to 100% each time. The compound also returned a chromatographic logP in data set [3] of 5.14.
On to `Cc1ncc(Oc2cccc(C(F)(F)F)c2)c(C2=NOC[C@@H](Cc3csc(C(F)(F)F)c3)N2)n1` (racemic) [Compound I-015], for which the inhibition at 20 ppm in the data set with Botrytis cinerea [1] was in the range of 90 to 100%; with Pyrenophora teres, 90 to 100%; in the data set with Alternaria alternata, 70 to 79%; in [2], 90 to 100%. The pest or weed control at 500 ppm was in the range of 80 to 89% in the data set with Alternaria brassicae, 80 to 89% in the data set on Sphaerotheca fuliginea, 90 to 100% in data set [5] and 70 to 79% in the data set with Botrytis cinerea [4]. In [3], this compound gave a chromatographic logP of 4.17.
As to `Cc1ccc(C[C@@H]2CON=C(c3nc(C)ncc3Oc3cccc(OC(F)F)c3)N2)c(C)c1` (racemic) [Compound I-007], the inhibition at 20 ppm with Botrytis cinerea [1] is 90 to 100%; in the data set with Pyrenophora teres, 90 to 100%; with Alternaria alternata, 70 to 79%; in [2] it was 90 to 100%. The pest or weed control at 500 ppm (with Alternaria brassicae; in the data set on Sphaerotheca fuliginea; in data set [5]; in the data set with Botrytis cinerea [4]) was 90 to 100% each time. For the same compound, the chromatographic logP in [3] was 3.94.
With `Cc1ccc([C@@H]2CON=C(c3nc(C)ncc3Oc3cccc(Cl)c3)N2)c(C)c1` (racemic) [Compound I-034], the inhibition at 20 ppm with Botrytis cinerea [1] lay within 90 to 100%; in the data set on Pyrenophora teres it was 90 to 100%; in the data set on Alternaria alternata, 90 to 100%; in data set [2], 70 to 79%. This compound returned a chromatographic logP in data set [3] of 3.8.
Regarding `Cc1ncc(Oc2cccc(Cl)c2)c(C2=NO[C@@H](F)[C@@H](c3ccc(Cl)cc3)N2)n1` (racemic) [Compound I-028], the inhibition at 20 ppm in the data set on Botrytis cinerea [1], in the data set with Pyrenophora teres, with Alternaria alternata, in the data set with Septoria tritici and in the data set on Pyricularia oryzae was 90 to 100% in each case. The chromatographic logP in data set [3] worked out at 3.79.
With `Cc1ncc(Oc2cccc(Cl)c2)c(C2=NOC[C@@H](c3ccc4c(c3)OCCO4)N2)n1` (racemic) [Compound I-031], the inhibition at 20 ppm (in the data set with Botrytis cinerea [1]; in the data set on Pyrenophora teres; in the data set on Alternaria alternata; in data set [2]; with Pyricularia oryzae) was 90 to 100% in each case. The chromatographic logP in data set [3] worked out at 3.04.
As for `COc1ccc(C[C@@H]2CON=C(c3nc(C)ncc3Oc3cccc(C(F)(F)F)c3)N2)c(Cl)c1` (racemic) [Compound I-012], the inhibition at 20 ppm in the data set on Botrytis cinerea [1] and in the data set on Pyrenophora teres was 90 to 100% each time. For the same compound, the pest or weed control at 500 ppm (in the data set with Alternaria brassicae; with Sphaerotheca fuliginea; in data set [5]; with Botrytis cinerea [4]) was 90 to 100% throughout. The compound further showed a chromatographic logP in data set [3] of 4.08.
For `Cc1ncc(Oc2cccc(C(F)(F)F)c2)c(C2=NOC[C@@H](Cc3ccc(OC(F)F)cc3Cl)N2)n1` (racemic) [Compound I-027], the inhibition at 20 ppm in the data set on Botrytis cinerea [1], with Pyrenophora teres, in the data set on Alternaria alternata and with Septoria tritici was 90 to 100% in each case. Further, the pest or weed control at 500 ppm (with Alternaria brassicae; in the data set with Sphaerotheca fuliginea; in data set [5]; in the data set on Botrytis cinerea [4]) was 90 to 100% throughout. In data set [3], the chromatographic logP amounted to 4.15.

The term inhibition denotes the share of the control response that was lost under treatment. Broadly, the chromatographic logP is a lipophilicity value derived from retention on a column. High values mean a more lipophilic compound, low ones a more hydrophilic compound.
